Results: the supplement of paper PMC10307832

Key:
Assay in all cases: relative viability (nuclei count vs DMSO), 5 days (fraction); higher = more cells survive
Pictilisib + Navitoclax = compound: CS(=O)(=O)N1CCN(Cc2cc3nc(-c4cccc5[nH]ncc45)nc(N4CCOCC4)c3s2)CC1 [Pictilisib] + CC1(C)CCC(c2ccc(Cl)cc2)=C(CN2CCN(c3ccc(C(=O)NS(=O)(=O)c4ccc(N[C@H](CCN5CCOCC5)CSc5ccccc5)c(S(=O)(=O)C(F)(F)F)c4)cc3)CC2)C1 [Navitoclax] (partner 0.5 µM)
Method in brief: (§1)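 Relative viability is defined as nuclei in treated wells over nuclei in vehicle wells. Duplicate plates were run and medians reported. Lung cancer cell lines in 1536-well plates were dosed by pin tool one day after seeding, with one drug or with a fixed anchor-drug dose plus five library-drug doses (not always all listed) in √10 steps, and nuclei were counted after 5 days.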

Pictilisib + Foretinib = compound: CS(=O)(=O)N1CCN(Cc2cc3nc(-c4cccc5[nH]ncc45)nc(N4CCOCC4)c3s2)CC1 [Pictilisib] + COc1cc2c(Oc3ccc(NC(=O)C4(C(=O)Nc5ccc(F)cc5)CC4)cc3F)ccnc2cc1OCCCN1CCOCC1 [Foretinib] (partner 0.25 µM)
Method in brief: as §1

Pictilisib + AZD7762 = compound: CS(=O)(=O)N1CCN(Cc2cc3nc(-c4cccc5[nH]ncc45)nc(N4CCOCC4)c3s2)CC1 [Pictilisib] + NC(=O)Nc1cc(-c2cccc(F)c2)sc1C(=O)N[C@H]1CCCNC1 [AZD7762] (partner 0.2 µM)
Method in brief: as §1

MK-2206 + Bortezomib = compound: NC1(c2ccc(-c3nc4ccn5c(=O)[nH]nc5c4cc3-c3ccccc3)cc2)CCC1 [MK-2206] + CC(C)C[C@H](NC(=O)[C@H](Cc1ccccc1)NC(=O)c1cnccn1)B(O)O [Bortezomib] (partner 0.002 µM)
Method in brief: as §1

MK-2206 + Lapatinib = compound: NC1(c2ccc(-c3nc4ccn5c(=O)[nH]nc5c4cc3-c3ccccc3)cc2)CCC1 [MK-2206] + CS(=O)(=O)CCNCc1ccc(-c2ccc3ncnc(Nc4ccc(OCc5cccc(F)c5)c(Cl)c4)c3c2)o1 [Lapatinib] (partner 2 µM)
Method in brief: as §1

Cell Line	relative viability (Pictilisib + Navitoclax; first compound 0.02 µM)	relative viability (Pictilisib + Navitoclax; first compound 0.06325 µM)	relative viability (Pictilisib + Navitoclax; first compound 0.6325 µM)	relative viability (Pictilisib + Navitoclax; first compound 2 µM)	relative viability (Pictilisib + Foretinib; first compound 0.02 µM)	relative viability (Pictilisib + Foretinib; first compound 0.06325 µM)	relative viability (Pictilisib + Foretinib; first compound 0.6325 µM)	relative viability (Pictilisib + Foretinib; first compound 2 µM)	relative viability (Pictilisib + AZD7762; first compound 0.02 µM)	relative viability (Pictilisib + AZD7762; first compound 0.06325 µM)	relative viability (Pictilisib + AZD7762; first compound 0.6325 µM)	relative viability (Pictilisib + AZD7762; first compound 2 µM)	relative viability (MK-2206 + Bortezomib; first compound 0.01 µM)	relative viability (MK-2206 + Bortezomib; first compound 0.03162 µM)	relative viability (MK-2206 + Bortezomib; first compound 0.3162 µM)	relative viability (MK-2206 + Bortezomib; first compound 1 µM)	relative viability (MK-2206 + Lapatinib; first compound 0.01 µM)	relative viability (MK-2206 + Lapatinib; first compound 0.03162 µM)	relative viability (MK-2206 + Lapatinib; first compound 0.3162 µM)	relative viability (MK-2206 + Lapatinib; first compound 1 µM)
NCI-H2347	0.865	0.874	0.75	0.528	0.843	0.937	1.19	0.438	0.796	0.806	0.546	0.396	0.914	1.11	1.06	0.92	0.845	1.06	0.887	0.953
HARA	1.2	1.13	1.09	1.08	0.828	0.906	0.851	0.581	0.246	0.357	0.302	0.245	1.16	1.31	1.08	0.916	0.774	0.81	0.567	0.51
NCI-H2085	1.08	1.17	0.864	0.416	0.858	0.811	0.572	0.329	0.963	1.06	0.354	0.287	1.06	1.12	0.929	0.716	0.773	0.81	0.605	0.467
NCI-H727	0.55	0.433	0.303	0.156	0.76	0.843	0.672	0.467	0.636	0.545	0.607	0.31	0.901	0.828	0.587	0.54	0.873	1.05	0.856	0.513
NCI-H1993	0.943	0.845	0.664	0.637	0.678	0.613	0.69	0.599	0.79	0.722	0.459	0.442	1.08	1.2	0.769	0.613	0.869	0.83	0.749	0.758
EMC-BAC-2	1.1	1.14	1.07	0.649	0.946	0.922	0.813	0.664	1.16	1.12	0.798	0.631	1.08	1.04	1.06	0.865	0.859	0.959	0.901	0.805
NCI-H1703	1.38	0.805	0.305	0.204	0.34	0.372	0.321	0.27	0.148	0.175	0.104	0.119	0.338	0.28	0.316	0.223	1.24	0.959	0.71	0.571
NCI-H2087	1.04	0.945	0.943	0.674	1	1.19	0.828	0.588	1.39	1.29	1.29	0.952	0.763	0.875	0.807	0.69	1.03	1.41	1.07	0.805
LXF-289	0.97	0.935	0.992	0.827	1.01	0.931	0.957	0.926	1.19	1.14	1.08	0.849	0.949	1.04	1.06	1.06	0.907	0.985	0.911	0.901
PC-3 [JPC-3]	0.758	0.749	0.803	0.496	1.01	1.09	0.931	0.827	0.812	0.844	0.491	0.324	0.812	0.94	0.841	0.805	0.469	0.457	0.437	0.441
HCC-366	1.04	1.06	0.908	0.195	0.978	0.936	0.68	0.329	0.316	0.259	0.204	0.0615	1.01	0.982	1.04	1.02	1.05	1.09	1.08	1.16
NCI-H1651	1.02	0.926	0.9	0.53	0.764	0.609	0.678	0.572	0.445	0.423	0.444	0.263	0.881	0.903	1.02	0.947	0.878	0.743	0.99	0.606
NCI-H1355	0.941	0.902	0.828	0.501	0.931	0.868	0.849	0.398	0.678	0.689	0.546	0.362	1.22	1.25	1.07	1.14	0.97	1.04	0.851	0.743
LC-2-ad	0.606	0.415	0.17	0.143	0.959	0.948	0.662	0.491	0.814	0.799	0.646	0.407	0.971	1.09	1.01	0.91	0.944	1.08	1.03	0.542
HCC-827	1.11	0.978	1.02	0.865	0.996	1.04	0.931	0.392	0.17	0.153	0.154	0.122	0.98	1.06	1.09	1.03	0.173	0.193	0.205	0.179
NCI-H3122	0.986	1.04	0.966	0.475	0.998	0.997	0.973	0.785	0.961	1.07	0.871	0.348	1.03	0.942	1.09	0.973	1.01	1.07	1.06	1.1
BEN	0.0665	0.0632	0.0606	0.0433	0.83	0.599	0.587	0.538	0.809	0.808	0.745	0.447	0.775	0.821	1	0.528	0.679	0.658	0.697	0.657
NCI-H647	1.27	1.03	0.928	0.351	1.05	0.997	1.15	0.758	0.474	0.577	0.283	0.201	1.06	1.27	0.959	0.644	1.01	1.15	1.06	0.521
PC-14	1.03	1.06	1.06	0.739	1.04	0.976	0.953	0.805	0.399	0.366	0.246	0.155	0.732	0.858	0.811	0.851	0.297	0.316	0.287	0.221
HCC-78	0.809	0.594	0.45	0.231	0.488	0.5	0.392	0.308	0.569	0.559	0.395	0.233	0.415	0.606	0.475	0.395	0.703	0.376	0.88	0.703
NCI-H1666	0.972	0.835	0.62	0.438	0.987	0.968	0.914	0.66	0.814	0.763	0.804	0.532	0.832	0.801	0.613	0.5	0.633	0.577	0.354	0.386
LU99A	0.818	0.638	0.574	0.361	1.04	0.866	0.674	0.464	0.423	0.395	0.266	0.185	1.27	1.12	1.14	1.06	1.05	0.871	0.904	0.877
NCI-H596	0.736	0.835	0.645	0.206	0.603	0.735	0.454	0.283	1.01	1.14	0.564	0.44	1.07	1.09	0.964	0.648	1.12	1.11	0.912	0.684
201T	1.23	1.18	1.24	0.792	1.06	1.07	0.846	0.617	0.637	0.571	0.41	0.448	1.06	1.13	1.17	1.16	0.988	1.12	1.02	1.12
HCC-15	0.634	0.644	0.601	0.328	1.07	0.966	0.852	0.659	1.23	1.25	0.989	0.78	0.98	1.07	1	0.811	0.825	0.9	0.657	0.8
